Like-named read-outs stand apart in the source and are kept apart here. Starred links: 1 amine or outer side, 2 acyl side, 3 side chain; linkers in the order of their positions; H or OH if unused. Positions of bridges follow the written chain, without caps; N, C: chain ends. Non-standard residues stand in square brackets, D forms with d. Residues, ends and D or L forms follow the SMILES beside them. Chains are numbered I, II in the order given. *: point of attachment. X5 = O=C(O)CCCCCCCCCCCCC(=O)N[C@@H](CCC(=O)N[C@@H](CCCCN*)C(=O)O)C(=O)O; X4 = O=C(O)CCCCCCCCCCC(=O)N[C@@H](CCC(=O)N[C@@H](CCCCN*)C(=O)O)C(=O)O; Ala(piperidin-4-yl) = O=C([C@H](CC1CCN([*:3])CC1)N[*:1])[*:2]; Phe(4-COOH) = N[C@@H](Cc1ccc(C(=O)O)cc1)C(=O)O; X3 = O=C(O)CN1CCC(N[*:1])(C(=O)[*:2])CC1; Phe(4-F) = N[C@@H](Cc1ccc(F)cc1)C(=O)O; C12 diacid = O=C(O)CCCCCCCCCCC(=O)*; NMeF = CN[C@@H](Cc1ccccc1)C(=O)O; X1 = C[C@@H](Cc1ccc(O)cc1)C(=O)*; NMeE = CN[C@@H](CCC(=O)O)C(=O)O; dNMeE = CN[C@H](CCC(=O)O)C(=O)O; Cha = N[C@@H](CC1CCCCC1)C(=O)O; Cit = NC(=O)NCCC[C@H](N)C(=O)O; NMeNle = CCCC[C@H](NC)C(=O)O; hCys = N[C@@H](CCS)C(=O)O; PEG2 = NCCOCCOCCC(=O)O; X2 = O=C(C[*:1])[*:2]; Aib = CC(C)(N)C(=O)O
Key:
[1] = system: SARS-CoV-2 Wuhan strain
[2] = system: SARS-CoV-2 Delta strain
[3] = system: SARS-CoV2 (USA WA1/2020 strain); conditions: 72 h
[4] = system: SARS-CoV-2 (JPN/TY/WK-521 strain); type: cell-based; set-up: key: the case where the peptide was found to have anti-SARS-CoV-2 activity when added at 50 nM was designated as “2”; the case where no activity was found upon the addition at 50 nM but the activity was found at 1 μM was designated as “1”; conditions: peptide added at 50 nM or 1 μM
[5] = in vitro; conditions: African green monkey

Compound: CCCC[C@H]1C(=O)NC(C)(C)C(=O)N[C@@H](CC2CCCCC2)C(=O)N[C@@H](Cc2ccc(F)cc2)C(=O)N(C)[C@H](CCC(=O)O)C(=O)N[C@@H](Cc2ccc(O)cc2)C(=O)N[C@@H](Cc2ccc(O)cc2)C(=O)N[C@@H](Cc2ccc(C(=O)O)cc2)C(=O)N[C@@H](CC2CCNCC2)C(=O)N[C@@H](CC2CCCCC2)C(=O)N[C@H](C(=O)N[C@H](CCC(=O)O)C(N)=O)CSCC(=O)N(C)[C@@H](CCC(=O)O)C(=O)N1C [Peptide 5555_p175] ({CH2CO}-[NMeE][NMeNle][Aib][Cha][Phe(4-F)][dNMeE]YY[Phe(4-COOH)][Ala(piperidin-4-yl)][Cha]C[dE]-NH2; thioether N-12)
- IC50 [1]: 0.0345 µM

Compound: CCCC[C@H]1C(=O)NC(C)(C)C(=O)N[C@@H](CC2CCCCC2)C(=O)N[C@@H](Cc2ccc(F)cc2)C(=O)N[C@H](CC(=O)O)C(=O)N[C@@H](Cc2ccc(O)cc2)C(=O)N[C@@H](Cc2ccc(O)cc2)C(=O)N[C@@H](CCCNC(N)=O)C(=O)N[C@H](CCCCN)C(=O)N[C@@H](CC2CCCCC2)C(=O)N[C@H](C(=O)N[C@H](CCC(=O)O)C(=O)NCCCC[C@H](NC(=O)CC[C@H](NC(=O)CCCCCCCCCCC(=O)O)C(=O)O)C(=O)O)CSCC(=O)N(C)[C@@H](CCC(=O)O)C(=O)N1C [Peptide 5555_p234] ({CH2CO}-[NMeE][NMeNle][Aib][Cha][Phe(4-F)][dD]YY[Cit][dK][Cha]C[dE]-X4; thioether N-12)
- IC50 [2]: 0.042 µM

Compound: CCCC[C@H]1C(=O)NC(C)(C)C(=O)N[C@@H](CC2CCCCC2)C(=O)N[C@@H](Cc2ccc(F)cc2)C(=O)N[C@H](CC(=O)O)C(=O)N[C@@H](Cc2ccc(O)cc2)C(=O)N[C@@H](Cc2ccc(O)cc2)C(=O)N[C@@H](CCCNC(N)=O)C(=O)N[C@H](CCCCN)C(=O)N[C@@H](CC2CCCCC2)C(=O)N[C@H](C(=O)N[C@H](CCC(=O)O)C(=O)NCCCC[C@H](NC(=O)CC[C@H](NC(=O)CCCCCCCCCCCCC(=O)O)C(=O)O)C(=O)O)CSCC(=O)N(C)[C@@H](CCC(=O)O)C(=O)N1C [Peptide 5555_p235] ({CH2CO}-[NMeE][NMeNle][Aib][Cha][Phe(4-F)][dD]YY[Cit][dK][Cha]C[dE]-X5; thioether N-12)
- IC50 [2]: 0.057 µM

Compound: CCCC[C@H]1C(=O)NC(C)(C)C(=O)N[C@@H](CC2CCCCC2)C(=O)N[C@@H](Cc2ccc(F)cc2)C(=O)N[C@H](CC(=O)O)C(=O)N[C@@H](Cc2ccc(O)cc2)C(=O)N[C@@H](Cc2ccc(O)cc2)C(=O)N[C@@H](Cc2ccc(C(=O)O)cc2)C(=O)N[C@H](CCCNC(=N)N)C(=O)N[C@@H](CC2CCCCC2)C(=O)N[C@H](C(N)=O)CSCC(=O)N(C)[C@@H](CCC(=O)O)C(=O)N1C [Peptide 5555_p003] ({CH2CO}-[NMeE][NMeNle][Aib][Cha][Phe(4-F)][dD]YY[Phe(4-COOH)][dR][Cha]C-NH2; thioether N-12)
- IC50 [3]: 0.0045 µM
- Anti-SARS-CoV-2 activity [4]: 2
- CC50 at 72 h [5]: > 100 µM

Compound: CCCC[C@H]1C(=O)NC(C)(C)C(=O)N[C@@H](CC2CCCCC2)C(=O)N[C@@H](Cc2ccc(F)cc2)C(=O)N(C)[C@@H](CCC(=O)O)C(=O)N[C@@H](Cc2ccc(O)cc2)C(=O)N[C@@H](Cc2ccc(O)cc2)C(=O)N[C@@H](Cc2ccc(C(=O)O)cc2)C(=O)N[C@H](CCCNC(=N)N)C(=O)N[C@@H](CC2CCCCC2)C(=O)N[C@H](C(N)=O)CSCC(=O)N(C)[C@@H](CCC(=O)O)C(=O)N1C [Peptide 5555_p005] ({CH2CO}-[NMeE][NMeNle][Aib][Cha][Phe(4-F)][NMeE]YY[Phe(4-COOH)][dR][Cha]C-NH2; thioether N-12)
- IC50 [3]: 0.005 µM
- CC50 at 72 h [5]: > 100 µM

Compound: CCCC[C@H]1C(=O)NC(C)(C)C(=O)N[C@@H](CC2CCCCC2)C(=O)N[C@@H](Cc2ccc(F)cc2)C(=O)N(C)[C@@H](CCC(=O)O)C(=O)N[C@@H](Cc2ccc(O)cc2)C(=O)N[C@@H](Cc2ccc(O)cc2)C(=O)N[C@@H](Cc2ccc(C(=O)O)cc2)C(=O)N[C@H](CCCNC(=N)N)C(=O)N[C@@H](CC2CCCCC2)C(=O)N[C@H](C(=O)N[C@H](CCC(=O)O)C(N)=O)CSCC(=O)N(C)[C@@H](CCC(=O)O)C(=O)N1C [Peptide 5555_p039] ({CH2CO}-[NMeE][NMeNle][Aib][Cha][Phe(4-F)][NMeE]YY[Phe(4-COOH)][dR][Cha]C[dE]-NH2; thioether N-12)
- IC50 [3]: 0.0074 µM
- CC50 at 72 h [5]: > 100 µM

Compound: CCCC[C@H]1C(=O)NC(C)(C)C(=O)N[C@@H](CC2CCCCC2)C(=O)N[C@@H](Cc2ccc(F)cc2)C(=O)N[C@H](CC(=O)O)C(=O)N[C@@H](Cc2ccc(O)cc2)C(=O)N[C@@H](Cc2ccc(O)cc2)C(=O)N[C@@H](CCCNC(N)=O)C(=O)N[C@H](CCCCN)C(=O)N[C@@H](CC2CCCCC2)C(=O)N[C@H](C(=O)N[C@H](CCC(=O)O)C(=O)NCCOCCOCCC(=O)N[C@H](CCCCNC(=O)CCCCCCCCCCC(=O)O)C(N)=O)CSCC(=O)N(C)[C@@H](CCC(=O)O)C(=O)N1C [Peptide 5555_p227] ({CH2CO}-[NMeE][NMeNle][Aib][Cha][Phe(4-F)][dD]YY[Cit][dK][Cha]C[dE][PEG2][dK](C12 diacid)-NH2; thioether N-12)
- IC50 [1]: 0.0115 µM
- IC50 [2]: 0.008 µM

Compound: CN1C(=O)CSC[C@@H](C(=O)N[C@H](CCC(=O)O)C(N)=O)NC(=O)[C@H](CC2CCCCC2)NC(=O)[C@H](CCCCN)NC(=O)[C@H](CCCNC(N)=O)NC(=O)[C@H](Cc2ccc(O)cc2)NC(=O)[C@H](Cc2ccc(O)cc2)NC(=O)[C@H](CCC(=O)O)N(C)C(=O)[C@H](Cc2ccc(F)cc2)NC(=O)[C@H](CC2CCCCC2)NC(=O)[C@H](CO)NC(=O)[C@H](Cc2ccccc2)N(C)C(=O)[C@@H]1CCC(=O)O [Peptide 5555_p092] ({CH2CO}-[NMeE][NMeF]S[Cha][Phe(4-F)][NMeE]YY[Cit]K[Cha]C[dE]-NH2; thioether N-12)
- IC50 [3]: 0.0041 µM
- Anti-SARS-CoV-2 activity ([4]; VeroE6/TMPRSS2 cells, JPN/TY/WK-521 strain, 24 hours): 2
- CC50 at 72 h [5]: > 100 µM

Compound: CCCC[C@H]1C(=O)NC(C)(C)C(=O)N[C@@H](CC2CCCCC2)C(=O)N[C@@H](Cc2ccc(F)cc2)C(=O)NC2(CCN(CC(=O)O)CC2)C(=O)N[C@@H](Cc2ccc(O)cc2)C(=O)N[C@@H](Cc2ccc(O)cc2)C(=O)N[C@@H](Cc2ccc(C(=O)O)cc2)C(=O)N[C@@H](CC2CCNCC2)C(=O)N[C@@H](CC2CCCCC2)C(=O)N[C@H](C(=O)N[C@H](CCC(=O)O)C(N)=O)CSCC(=O)N(C)[C@@H](CCC(=O)O)C(=O)N1C [Peptide 5555_p173] ({CH2CO}-[NMeE][NMeNle][Aib][Cha][Phe(4-F)][X3]YY[Phe(4-COOH)][Ala(piperidin-4-yl)][Cha]C[dE]-NH2; thioether N-12)
- IC50 [1]: 0.0068 µM

Compound: CN1C(=O)CSC[C@@H](C(=O)N[C@H](CCC(=O)O)C(=O)O)NC(=O)[C@H](CC2CCCCC2)NC(=O)[C@H](CC2CCNCC2)NC(=O)[C@H](Cc2ccc(C(=O)O)cc2)NC(=O)[C@H](Cc2ccc(O)cc2)NC(=O)[C@H](Cc2ccc(O)cc2)NC(=O)[C@H](CCC(=O)O)N(C)C(=O)[C@H](Cc2ccc(F)cc2)NC(=O)[C@H](CC2CCCCC2)NC(=O)C(C)(C)NC(=O)[C@H](Cc2ccccc2)N(C)C(=O)[C@@H]1CCC(=O)O [Peptide 5555_p119] ({CH2CO}-[NMeE][NMeF][Aib][Cha][Phe(4-F)][NMeE]YY[Phe(4-COOH)][Ala(piperidin-4-yl)][Cha]C[dE]-OH; thioether N-12)
- IC50 [3]: 0.0182 µM
- CC50 at 72 h [5]: > 100 µM

Compound: CCCC[C@@H](C(=O)NC(C)(C)C(=O)N[C@@H](CC1CCCCC1)C(=O)N[C@@H](Cc1ccc(F)cc1)C(=O)N[C@H](CC(=O)O)C(N)=O)N(C)C(=O)[C@H](CCC(=O)O)N(C)C(=O)CSCC[C@H](NC(=O)[C@H](CC1CCCCC1)NC(=O)[C@@H](CCCCN)NC(=O)[C@H](CCCNC(N)=O)NC(=O)[C@H](Cc1ccc(O)cc1)NC(=O)[C@@H](C)Cc1ccc(O)cc1)C(=O)N[C@H](CCC(=O)O)C(=O)N[C@H](CCCCNC(=O)CCCCCCCCCCC(=O)O)C(N)=O [Peptide 5555_p221] (I: X1-Y[Cit][dK][Cha][hCys][dE][dK](C12 diacid)-NH2 / II: [NMeE][NMeNle][Aib][Cha][Phe(4-F)][dD]-NH2; linker I:5-II:N via X2)
- IC50 [1]: 0.0177 µM
- IC50 [2]: 0.0186 µM

Compound: CN1C(=O)CSC[C@@H](C(=O)N[C@H](CCC(=O)O)C(N)=O)NC(=O)[C@H](CC2CCCCC2)NC(=O)[C@H](CCCCN)NC(=O)[C@H](Cc2ccc(C(=O)O)cc2)NC(=O)[C@H](Cc2ccc(O)cc2)NC(=O)[C@H](Cc2ccc(O)cc2)NC(=O)[C@H](CCC(=O)O)N(C)C(=O)[C@H](Cc2ccc(F)cc2)NC(=O)[C@H](CC2CCCCC2)NC(=O)[C@H](CO)NC(=O)[C@H](Cc2ccccc2)N(C)C(=O)[C@@H]1CCC(=O)O [Peptide 5555_p088] ({CH2CO}-[NMeE][NMeF]S[Cha][Phe(4-F)][NMeE]YY[Phe(4-COOH)]K[Cha]C[dE]-NH2; thioether N-12)
- IC50 [3]: 0.0114 µM
- CC50 at 72 h [5]: > 100 µM

Compound: CCCC[C@H]1C(=O)NC(C)(C)C(=O)N[C@@H](CC2CCCCC2)C(=O)N[C@@H](Cc2ccc(F)cc2)C(=O)N[C@H](CC(=O)O)C(=O)N[C@@H](Cc2ccc(O)cc2)C(=O)N[C@@H](Cc2ccc(O)cc2)C(=O)N[C@@H](Cc2ccc(C(=O)O)cc2)C(=O)N[C@@H](CC2CCNCC2)C(=O)N[C@@H](CC2CCCCC2)C(=O)N[C@H](C(=O)N[C@H](CCC(=O)O)C(N)=O)CSCC(=O)N(C)[C@@H](CCC(=O)O)C(=O)N1C [Peptide 5555_p026] ({CH2CO}-[NMeE][NMeNle][Aib][Cha][Phe(4-F)][dD]YY[Phe(4-COOH)][Ala(piperidin-4-yl)][Cha]C[dE]-NH2; thioether N-12)
- IC50 [3]: 0.0081 µM
- Anti-SARS-CoV-2 activity [4]: 2
